Key:
[1] = xn = mol fraction of the nth substance listed; conditions: 101 kPa, Liquid; for viscosity: Capillary tube (Ostwald / Ubbelohde) method; for mass density: Vibrating tube method
[2] = 101 kPa, Liquid; for viscosity: Capillary tube (Ostwald / Ubbelohde) method; for mass density: Vibrating tube method

CC(C)CC(C)(C)C [2,2,4-trimethylpentane] + CCCCCO
[1], x1 = 1
Conditions	mass density [kg/m3]	viscosity [mPa·s]
298.15 K	687.82	0.478
303.15 K	683.68	0.453
308.15 K	679.52	0.429
313.15 K	675.32	0.408
318.15 K	671.1	0.388
323.15 K	666.85	0.369

CC(C)CC(C)(C)C [2,2,4-trimethylpentane]
[2]
Conditions	mass density [kg/m3]	viscosity [mPa·s]
298.15 K	687.82	0.478
303.15 K	683.68	0.453
308.15 K	679.52	0.429
313.15 K	675.32	0.408
318.15 K	671.1	0.388
323.15 K	666.85	0.369

CC(C)CC(C)(C)C [2,2,4-trimethylpentane] + CCCCCCO
[1], x1 = 1
Conditions	mass density [kg/m3]	viscosity [mPa·s]
298.15 K	687.82	0.478
303.15 K	683.68	0.453
308.15 K	679.52	0.429
313.15 K	675.32	0.408
318.15 K	671.1	0.388
323.15 K	666.85	0.369

CCCCCO [pentan-1-ol]
[2]
Conditions	mass density [kg/m3]	viscosity [mPa·s]
298.15 K	810.59	3.458
303.15 K	807.89	3.007
308.15 K	804.16	2.625
313.15 K	800.4	2.317
318.15 K	796.59	2.029
323.15 K	792.75	1.795

CCCO [propan-1-ol]
[2]
Conditions	mass density [kg/m3]	viscosity [mPa·s]
298.15 K	800.03	1.955
303.15 K	796.01	1.737
308.15 K	791.92	1.548
313.15 K	787.79	1.384
318.15 K	783.65	1.241
323.15 K	779.43	1.117

CC(C)CC(C)(C)C [2,2,4-trimethylpentane] + CCCCCCCO
[1], x1 = 1
Conditions	mass density [kg/m3]	viscosity [mPa·s]
298.15 K	687.82	0.478
303.15 K	683.68	0.453
308.15 K	679.52	0.429
313.15 K	675.32	0.408
318.15 K	671.1	0.388
323.15 K	666.85	0.369

CCCCCCCO [heptan-1-ol]
[2]
Conditions	mass density [kg/m3]	viscosity [mPa·s]
298.15 K	818.82	6.004
303.15 K	815.3	5.079
308.15 K	811.75	4.374
313.15 K	808.17	3.8
318.15 K	804.57	3.224
323.15 K	800.93	2.851

CCCO [propan-1-ol] + CC(C)CC(C)(C)C
[1], x2 = 0
Conditions	mass density [kg/m3]	viscosity [mPa·s]
298.15 K	800.03	1.955
303.15 K	796.01	1.737
308.15 K	791.92	1.548
313.15 K	787.79	1.384
318.15 K	783.65	1.241
323.15 K	779.43	1.117

CCCCCCO [hexan-1-ol]
[2]
Conditions	mass density [kg/m3]	viscosity [mPa·s]
298.15 K	815.3	4.605
303.15 K	811.71	3.944
308.15 K	808.09	3.414
313.15 K	804.43	2.96
318.15 K	800.75	2.581
323.15 K	797.02	2.251

Source: the NIST ThermoML archive (doi:10.1021/je501041r)
